Laboratory results as given in patent US12122973B2, “Guanidinium-based ionic liquid and its use as a lubricant additive” (TOTALENERGIES ONETECH, priority 2020, dated 2024).

Tests used:
[1] = Base number (BN/TBN) according to ASTM D2896; type: physicochemical; conditions: neat ionic liquid
Experimental: An oil's neutralization capacity is measured by its BN or Base Number, characterized by its basicity. It is measured according to standard ASTM D-2896 and is expressed as an equivalent in milligrams of potash per gram of oil (also called “mg of KOH/g” or “BN point”). The BN is a standard criterion making it possible to adjust the basicity of the cylinder oils to the sulphur content of the fuel oil used, in order to be able to neutralize all of the sulphur contained in the fuel, and capable of being converted to sulphuric acid by combustion and hydrolysis.
The base number of IL1 is 61 mg KOH/g according to ASTM D2896.

[2] = Solubility test of the ionic liquid in base oil; type: physicochemical; conditions: lubricant composition of IL1 and base oil; room temperature (15-25° C.) and 60° C.; limpid after three months
From the text: In order to be used in a lubricant composition, the guanidinium-based ionic liquid must preferably be soluble in the base oil which represents the major part of the lubricant composition. A compound is oil-soluble when it can be solubilized at a concentration of at least 0.01% by weight with regards to the weight of a base oil, at room temperature. In order to check that the guanidinium-based ionic liquid is oil-soluble, a test is disclosed in the experimental part.
In order to check that the guanidinium-based ionic liquid is oil-soluble, the following test has been achieved:
100 mL of the lubricant composition comprising IL1 and the base oil is introduced into two reaction tubes. One of the tubes is maintained at room temperature (between 15 and 25° C.) and the other reaction tube is placed in an oven at 60° C.
After three months, the lubricant composition of both reaction tubes was limpid.

With “1,1,3,3-tetramethylguanidinium tert-Octylphenylpolyethoxyethanolate [IL1]” the base number [1] was 61 mg KOH/g and the “solubility in the oil” value [2] was “soluble in the oil”.
